Results published in patent US7026469B2, “Compositions and methods of double-targeting virus infections and cancer cells” (Wake Forest University School of Medicine, priority 2000, dated 2006).
Like-named read-outs stand apart in the source and are kept apart here.

Columns and labels:
HIV-1 = HIV-1 syncytial plaque assay in CEM-SS cells; type: cell-based
Protocol: (§1) The inhibitory effects of PC lipids, non-PC lipid-AZT conjugates, and double-targeting PC lipid-AZT conjugate compounds of the invention on replication of HIV-1 virus in cells was examined using the plaque assay procedure described in Kucera et al. (1990, AIDS Research and Human Retroviruses, 6:491). CEM-SS cells were seeded at 50,000 cells per milliliter in RPMI growth medium as a monolayer in 96-well dishes, inoculated with 50 to 100 plaque forming units of HIV-1 and overlaid with serial dilutions of either PC lipid, non-PC lipid-AZT conjugate, or PC-lipid-AZT conjugate in RPMI-1640 growth medium supplemented with 10% fetal bovine serum. The structures of the tested compounds are described in Table 1. AZT and PC lipids were used as positive controls. […] The cytotoxicity of PC lipids, non-PC lipid-AZT conjugates and double targeting PC lipid-AZT conjugates was assessed using the procedure described in Kucera et al. (1990, AIDS Res. And Human Retrovir., 6:496, and 1998, Antiviral Chemistry and Chemotherapy, 9:160). [drawing 16]
In the plaque assay, HIV-1 syncytial plaques are seen as large, multicellular foci (10 to 25 nuclei/syncytium) that appear either brown and granular or clear. Because the number of HIV-1 syncytial plaques was correlated with reverse transcriptase (RT) and p24 core antigen activity in the HIV-1 infected cell overlay fluids, the syncytial plaque assay could be used to quantify the amount of infectious virus. Reverse transcriptase activity was assayed according to the procedure described by Poeisz et al. (1980, Proc. Natl. Acad. Sci. U.S.A. 77:7415). The activity of p24 core antigen induced by HIV-1 infection of CEM-SS cells was measured spectrophotometrically using the commercial Coulter enzyme immunoassay (EIA).

CEM-SS cells = assay: Cytotoxicity (TC50) of the compounds tested for anti-HIV-1 activity; type: cell-based, human
Protocol: as §1

[1] = tested on: AZT-resistant clinical isolates of HIV-1; assay: microbe, parasite or virus in culture; type: cell-based; details: for Fold-Increase (G-762 to G-691): post-AZT G-691 versus pre-AZT G-762; for Fold-Increase (H112-2 to G-910): post-AZT G-910 versus pre-AZT H112-2; for EC50: mean of 2 to 4 independent tests
Protocol: as §1
Evaluation of the clinical isolates to the compounds was performed using the plaque assay procedure described herein in Example 1. The matched pairs of clinical isolates were obtained through the AIDS Research and Reference Reagent Program, NIH, Bethesda, Md.

[2] = tested on: herpes simplex virus type 2; assay: Herpes simplex virus type 2 plaque inhibition in Vero cells; type: cell-based
Protocol: Proof-of-concept of the antiviral activity of the double-targeting PC lipid-AZT conjugate compounds of the invention with respect to herpes simplex virus type 2 was evaluated and compared with that of PC lipid alone and with acyclovir (positive controls). Serial dilutions of PC lipid, PC lipid-AZT conjugate compound, or acyclovir were evaluated for inhibition of the formation of herpes simplex virus type 2 plaques in Vero cells and EC50 values were calculated from the results obtained. Briefly, the tests for anti-herpes simplex virus (HSV) activity and cytotoxicity of the compounds were performed by seeding 8×10^4 monkey kidney cells (Vero) per ml of D-MEM with 10% fetal bovine serum (FBS) in each well of a 12-well dish. The cultures were incubated at 37° C. to form a complete monolayer. To measure anti-HSV activity and effective concentration50 (EC50) each cell monolayer was infected with HSV diluted in PBS-A containing about 100 plaque forming units (PFU) per 0.1 ml. After virus attachment (1 hr., 37° C.) the infected monolayers were overlaid with E-MEM containing 2% FBS and 0.5% methyl cellulose with or without added serial concentrations of test compound. […] The EC50 values were calculated using a computer generated program.

[3] = tested on: monkey kidney cells (Vero); assay: Cytotoxicity in Vero cell monolayers (cell morphology); type: cell-based; details: 48 hours at 37° C., lowest concentration changing morphology in at least 25% of the cells; for CC50: read-out: Cytotoxicity (TC50)
Protocol: To measure cytotoxicity of the compounds, the cell monolayers (described above) were treated with a serial concentration of test compound for 48 hours at 37° C. and visually examined after crystal violet staining by light microscopy for changes in cell morphology (cell rounding, shrinking, detachment) compared to an untreated control culture.

[4] = tested on: HIV-1 persistently infected H9IIIB cells; assay: Induction of defective HIV-1 in persistently infected H9IIIB cells (RT activity after infecting fresh CEM-SS cells); type: cell-based; details: for DPM-Bkg: RT activity in CEM-SS overlay medium after 7 or 9 days, H9IIIB cells treated with 1.0 μM compound for 14 or 11 days; for % Inhibition: inhibition of RT activity as measure of defective virus formation, 1.0 μM compound, 14 or 11 days
Protocol: HIV-1 persistently infected H9IIIB cells were washed twice to remove extracellular HIV-1, resuspended in fresh growth medium with or without 1.0 μM of compound for a total of 14 days. During the treatment period, the cells were subcultured 1:3 three times a week. In addition, on days 3, 7 and 11, the cells were pelleted to remove extracellular HIV-1 before subculture in fresh growth medium with or without the compound. After 14 or 11 days of treatment, the virus was pelleted (100,000×g, 1 hr, 4 C.) from the overlay medium to remove free compound, resuspended in fresh medium without compound and assayed for RT activity. The virus suspension was normalized to 500,000 RT DPM and used to infect fresh CEM-SS cells. The infected CEM-SS cells were incubated for a total of 7 or 9 days, and the overlay medium was harvested and assayed for induction of RT activity. The % inhibition of RT activity was used as a measure of defective virus formation during the treatment period.

[5] = plaques counted after five days at 37° C., CEM-SS cells, read-out: Anti-HIV-1 Activity (EC50)
[6] = post-AZT isolate, patient code G-691, read-out: EC50 Post-AZT G-691
[7] = post-AZT isolate, patient code G-910, read-out: EC50 Post-AZT G-910
[8] = pre-AZT isolate, patient code G-762, read-out: EC50 Pre-AZT G-762
[9] = pre-AZT isolate, patient code H112-2, read-out: EC50 Pre-AZT H112-2
[10] = Vero cells, 2 days at 37° C., replicate values in one cell, read-out: Anti-Herpes Simplex Activity (EC50)
[11] = acyclovir in replicate tests, read-out: EC50 against herpes simplex virus type 2

| SMILES | EC50 (HIV-1; [5]) | CC50 (CEM-SS cells) | Fold-Increase (G-762 to G-691) [1] | Fold-Increase (H112-2 to G-910) [1] | EC50 [1, 6] | EC50 [1, 7] | EC50 [1, 8] | EC50 [1, 9] | EC50 [2, 10] | Cytotoxicity (TC50) [3] | DPM-Bkg [4] | % Inhibition [4] | CC50 (CEM-SS cells; read-out: Cytotoxicity (TC50)) | CC50 [3] | anti-HIV-1 activity relative to AZT (HIV-1; compared with AZT) | EC50 (HIV-1; read-out: anti-HIV-1 activity) | cytotoxicity (CEM-SS cells) | fold increase in AZT-resistance among HIV-1 clinical isolates ([1]; text summary over both isolate pairs) | EC50 [2, 11] |
| --- | --- | --- | --- | --- | --- | --- | --- | --- | --- | --- | --- | --- | --- | --- | --- | --- | --- | --- | --- |
| CCCCCCCCCCCCSCC(COP(=O)([O-])OCC[N+](C)(C)C)OCCCCCCCCOCc1ccccc1 (centres unmarked) [INK-17, 3-dodecylthio-2-(8′-benzyloxyoctyloxy)propyl phosphocholine] | 0.15 ± 0.13 µM | 49.1 ± 13.2 µM | 0 | 5.1 | 0.18 µM | 0.2 µM | 0.26 µM | 0.04 µM | > 4 µM | toxic @ 4 | 2847 DPM | 58% | – | – | – | – | – | – | – |
| CCCCCCCCCCCCSCC(COP(=O)([O-])OCC[N+](C)(C)C)OCCCCCCCCO (centres unmarked) [INK-18, 3-dodeceylthio-2-(8′-hydroxyoctyloxy)propyl phosphophocholine] | 1.92 ± 1.8 µM | – | 0 | 1.8 | 0.6 µM | 1.04 µM | > 1.06 µM | 0.56 µM | – | – | 4195 DPM | 38% | 50 ± 42 µM | – | – | – | – | – | – |
| CCCCCCCCCCCCSCC(COC(=O)CC(=O)OC[C@H]1O[C@@H](n2cc(C)c(=O)[nH]c2=O)C[C@@H]1N=[N+]=[N-])OC (some centres unmarked) [INK-19] | 0.006 ± 0.001 µM | – | 13.5 | >55.6 | 1.62 µM | > 1.7 µM | 0.12 µM | 0.03 µM | > 20 µM | – | 2508 DPM | 63% | 6.3 ± 1.1 µM | > 20 µM | – | – | – | – | – |
| CCCCCCCCCCCCSCC(COP(=O)([O-])OCC[N+](C)(C)C)OCCCCCCCCC(=O)OCC(=O)OC[C@H]1O[C@@H](n2cc(C)c(=O)[nH]c2=O)C[C@@H]1N=[N+]=[N-] (some centres unmarked) [INK-20] | – | – | 18.6 | 22.0 | 0.74 µM | 0.44 µM | 0.04 µM | 0.02 µM | > 20 µM | toxic @ 20 | 2455 DPM | 64% | 6.9 ± 0.6 µM | – | more than ten-fold higher than AZT | 0.0009 µM | 6.9 ± 0.6 µM | about 20 fold | – |
| CCCCCCCCCCCCSCC(COP(=O)([O-])OCC[N+](C)(C)C)OCCCCCCCCCCOCc1ccccc1 (centres unmarked) [INK-21] | 1.5 ± 0.23 µM | – | – | – | – | – | – | – | > 20 µM | toxic @ 20 | – | – | 57.3 ± 10.8 µM | – | – | – | – | – | – |
| CCCCCCCCCCCCSCC(COP(=O)([O-])OCC[N+](C)(C)C)OCCCCCCCCCCO (centres unmarked) [INK-22] | 0.39 ± 0.31 µM | – | – | – | – | – | – | – | > 20 µM | toxic @ 20 | – | – | > 90.5 µM | – | – | – | – | – | – |
| CCCCCCCCCCCCSCC(COP(=O)([O-])OCC[N+](C)(C)C)OCCCCCCCCCCCCOCc1ccccc1 (centres unmarked) [INK-23] | > 1.46 µM | – | – | – | – | – | – | – | > 20 µM | – | – | – | > 100 µM | > 20 µM | – | – | – | – | – |
| CCCCCCCCCCCCSCC(COP(=O)([O-])OCC[N+](C)(C)C)OCCCCCCCCCCCCO (centres unmarked) [INK-24] | 0.39 ± 0.39 µM | – | 0 | <1.0 | 0.08 µM | 0.25 µM | 0.19 µM | 0.37 µM | 13.9 µM | – | 3087 DPM | 33% | 80.6 ± 6.2 µM | > 20 µM | – | – | – | – | 13.8 µM |
| CCCCCCCCCCCCSCC(COP(=O)([O-])OCC[N+](C)(C)C)OCCCCCCCCCCOC(=O)CC(=O)OC[C@H]1O[C@@H](n2cc(C)c(=O)[nH]c2=O)C[C@@H]1N=[N+]=[N-] (some centres unmarked) [INK-25] | 0.02 ± 0.01 µM | – | 2 | 2.5 | 0.06 µM | 0.01 µM | 0.03 µM | 0.004 µM | > 20 µM | toxic @ 20 | 2140 DPM | 54% | 13.6 µM | – | – | – | – | – | – |
| CCCCCCCCCCCCSCC(COP(=O)([O-])OCC[N+](C)(C)C)OCCCCCCCCCCCCOC(=O)CC(=O)OC[C@H]1O[C@@H](n2cc(C)c(=O)[nH]c2=O)C[C@@H]1N=[N+]=[N-] (some centres unmarked) [INK-26] | 0.02 ± 0.02 µM | – | 20 | 1.5 | 0.06 µM | 0.03 µM | 0.003 µM | 0.02 µM | – | – | 1793 DPM | 61% | 11.6 µM | > 20 µM | – | – | – | – | 12 µM |
